Measurements taken from US11124523B2, “2,6-dioxaspiro [4,5] decane derivatives and preparation method therefor and pharmaceutical applications thereof” (SHANDONG LUYE PHARMACEUTICAL CO., LTD., priority 2017, dated 2021).
Structures can show the parent of a compound that is named as a salt.

Key:
CYP2C19 = CYP2C19 (Homo sapiens (Human), UniProt P33261); assay: Inhibition of cytochrome P450 isoenzymes, CYP2C19; type: in vitro ADME; details: >50 μM: inhibitory effect less than 50% at 50 μM; read-out: CYP 2C19 IC50
Method: (§1) 4.1 Experimental Purpose: To test the inhibitory effects of the compounds of the present disclosure on different isoforms of human cytochrome P450 isoenzymes
(§2) 1) The activities of CYP1A2, 2C9, 2C19, 2D6, and 3A4 were measured using a standard substrate method. In each reaction, the enzyme activities were measured in the presence and absence of the substance to be tested, wherein a single sample was measured at a total of eight test concentrations. A 5-in-1 mixed inhibitor was used.
(§3) 2) An incubation matrix comprising microsomes, a substrate, and an inhibitor or the compound to be tested was pre-incubated at 37° C. for 5 minutes, and then NADPH was added to start the reaction.
(§4) 3) After the incubation, acetonitrile with an internal standard was added to stop the reaction.
(§5) 4) Metabolites generated by the substrates were measured by using the LC-MS/MS method, and the peak area ratio of each metabolite to the internal standard was evaluated and the inhibition rate and IC50 were calculated.

[1] = target: T1, human μ-subtype opioid receptor (hMOR) (Homo sapiens (Human), UniProt P35372); assay: MOR cAMP agonist activity test; type: cell-based; details: for Emax: maximum effect of enkephalin DAMGO was 100%
Method: Test 1: MOR cAMP Agonist Activity Test
1.1 Experimental Purpose: To test the cAMP agonist activity of the compounds of the present disclosure on the human μ-subtype opioid receptor (hMOR).
a. Compound samples were dissolved in DMSO to a storage concentration of 10 mM.
(§6) b. A series of diluted samples were formulated on a 384-well LDV plate. A total of 11 concentration points were obtained by 3.162-fold gradient dilution.
c. The series of diluted samples were transferred to an experimental plate (Corning-3824) by using an Echo machine, wherein 30 nL was transferred corresponding to each well.
The experiment was performed using a cAMP detection kit from Cisbio (Cisbio #62AM4PEJ).
a. Assay buffer and stimulation buffer (STB) required for the experiment were formulated.
Stimulation Buffer: formulated with the assay buffer, containing 5 μM NKH477 (CAS: 138605-00-2) and 200 μM IBMX (3-isobutyl-1-methylxanthine)
b. […] The number of cells in the well was 10,000 cells/well.
c. The experimental plate was placed in a 37° C. constant-temperature incubator for incubation. The incubation was performed for 40 minutes.
d. A cAMP standard concentration curve was prepared. The first concentration point was at 2848 nM, and a total of sixteen detection concentrations were obtained by 4-fold gradient dilution. There were three replicates for each concentration point.
e. The cAMP detection kit from Cisbio was provided therein with a d2-labeled cAMP reagent (d2 reagent) and an Eu-labeled cAMP antibody reagent (Crypate reagent). The above two reagents were formulated according to the kit instructions, and then added to the sample experimental plate and to the cAMP standard concentration experimental plate, respectively. It was necessary to add 5 μL of the d2 reagent and then 5 μL of the Cryptate reagent to each well.
f. After the experimental plates were left at room temperature for 60 minutes, the experimental plates were read on the Envision.

CYP2D6 = CYP2D6 (Homo sapiens (Human), UniProt P10635); assay: Inhibition of cytochrome P450 isoenzymes, CYP2D6; type: in vitro ADME; details: read-out: CYP 2D6 IC50
Method: as §1, §2, §3, §4, §5

[2] = Metabolic stability in liver microsomes; type: in vitro ADME; details: pH 7.4; human liver microsomes 0.5 mg protein/mL; 45 mg microsome protein/g liver, 20 g liver/kg; read-out: Intrinsic Clearance CLint(liver) in Human Liver
Method: Test 3: Metabolic Stability in Liver Microsomes
3.1 Experimental Purpose: To test the metabolic stability of the compounds of the present disclosure in human liver microsomes
a. All samples as well as testosterone, diclofenac and propafenone acting as reference substances were dissolved in DMSO to a storage concentration of 10 mM.
b. Intermediate Solution: 5 μL of the substance to be tested or the reference substance was diluted with 45 μL of DMSO (with 450 μL of 1:1 methanol/water).
c. Working Solution: the intermediate solution was diluted with 450 μL of 100 mM potassium phosphate buffer solution (pH 7.4).
Assay Buffer: 100 mM potassium phosphate buffer (pH 7.4) • 10 mM MgCl2
Liver Microsome Solution (final concentration: 0.5 mg protein/mL):
Human liver microsomes, obtained from BD, Cat No. 452117, Lot No. 38291
b. 10 μL of the working solution containing the substance to be tested or the reference substance was added to each of plates (T0, T5, T10, T20, T30, T60, NCF60).
c. The liver microsome solution was dispensed into a 96-well plate in an amount of 680 μL/well, then 80 was added, and then T was added to each of the plates. The above incubation plate was placed at 37° C. and pre-incubated for approximately 10 minutes.
d. 10 μL of 100 mM potassium phosphate buffer was added to each well in the NCF60 plate.
e. After the pre-incubation was finished, the NADPH regeneration system working solution was dispensed into the 96-well plate in an amount of 90 μL/well, and then added to each of the plates in an amount of 10 μL/well to start the reaction.
f. The plates were incubated for an appropriate time (e.g., 5, 10, 20, 30, or 60 minutes).
g. The stop solution (refrigerated at 4° C., containing 100 ng/mL Tolbutamide and 100 ng/mL Labetalol) was added to each sample well in an amount of 300 μL/well.
h. The sample plates were shaken well for about 10 minutes and centrifuged at 4,000 rpm for 20 minutes at 4° C. During the centrifugation, 300 μL of HPLC water was added to each well, and 100 μL of the supernatant was taken for LC-MS/MS analysis.
T1/2 and Clint(mic) were calculated by the following formula: […]
Each gram of liver contained 45 mg of microsome protein, and the liver weight was 20 g/kg in a human.
Ct was the concentration at time t, t was the incubation time, C0 was the concentration at time 0, Ke was an elimination rate constant, Clint(mic) was the intrinsic clearance in liver microsomes, and Clint(liver) was the intrinsic clearance in liver. CLint(mic)=0.693/half-life/mg of microsome protein per mL(concentration of microsomes during incubation) CLint(liver)=CLint(mic)×mg of microsome protein/g of liver weight×a ratio of liver weight to body weight 3.4 Test Results

CYP2C9 = CYP2C9 (Homo sapiens (Human), UniProt P11712); assay: Inhibition of cytochrome P450 isoenzymes, CYP2C9; type: in vitro ADME; details: >50 μM: inhibitory effect less than 50% at 50 μM; read-out: CYP 2C9 IC50
Method: as §1, §2, §3, §4, §5

CYP3A4 = CYP3A4 (Homo sapiens (Human), UniProt P08684); assay: Inhibition of cytochrome P450 isoenzymes, CYP3A4; type: in vitro ADME; details: >50 μM: inhibitory effect less than 50% at 50 μM; read-out: CYP 3A4 IC50
Method: as §1, §2, §3, §4, §5

[3] = target: T1, human μ-subtype opioid receptor (hMOR); assay: MOR β-arrestin-2 agonist activity test; type: cell-based; details: for EC50: >30000 nM = greater than the highest detection concentration, read-out: MOR β-arrestin-2 EC50; for Emax: maximum effect of enkephalin DAMGO was 100%, about 0% = no actual agonist activity
Method: Test 2: β-Arrestin-2 Agonist Activity Test
2.1 Experimental Purpose: To test the β-arrestin-2 agonist activity of the compounds of the present disclosure on the human μ-subtype opioid receptor (hMOR).
a. All samples were dissolved in DMSO to a storage concentration of 10 mM.
as §6
c. The series of diluted samples were transferred to an experimental plate by using an Echo machine, wherein 60 nL of the compound was transferred corresponding to each well.
d. 60 nL of 3.33 mM DAMGO (as HPE) and 60 nL of DMSO (as ZPE) were transferred to the corresponding positions on the experimental plate by using the Echo machine.
The experiment was performed using PathHunter Detection Kit from DiscoveRX Cooperation (DiscoveRX #93-0213C3)
a. Assay buffer and PathHunter detection reagent required for the experiment were formulated.
Assay Buffer: 1×DPBS buffer
PathHunter Detection Reagent: The kit was provided therein with three constituents.
c. The experimental plate was centrifuged at 300 rpm for 30 s and incubated at room temperature for 2 hours.
d. 6 μL of the PathHunter detection reagent was added to each well of the experimental plate.
e. The experimental plate was centrifuged at 300 rpm for 30 seconds, then left at room temperature for 60 minutes, and then read on the Envision.

hERG potassium channels = hERG potassium channels (Homo sapiens (Human), UniProt Q12809); assay: Effects on hERG potassium channels (Qpatch, CHO-hERG cells); type: cell-based; details: highest test concentration 40 μM, read-out: IC50 representing the blocking effects of hERG potassium currents
Method: 5.1 Experimental Purpose: To test the blocking effects of the compounds of the present disclosure on hERG potassium currents.
a. CHO-hERG cells were cultured in a 175 cm^2 culture flask. When the cells were grown to a density of 60 to 80%, the culture solution was removed, and the cells were washed once with 7 mL of PBS (phosphate buffer solution), and then 3 mL of a cell digestion solution (Detachin) was added for digestion of the cells.
b. After completely digested, the cells were neutralized by adding 7 mL of the culture solution and then centrifuged, the supernatant was removed, and then 5 mL of the culture solution was added for resuspension to ensure a cell density of 2 to 5×10^6 cells/mL.
The single-cell high-impedance sealing and whole-cell pattern formation processes were both carried out automatically by the Qpatch instrument. After the whole-cell recording pattern was obtained, the cells were clamped at −80 millivolts. A preceding voltage of −50 millivolts was applied for 50 milliseconds prior to application of a depolarizing stimulus of +40 millivolts for 5 seconds, and then the cells were repolarized to −50 millivolts and maintained for 5 seconds and then returned back to −80 millivolts. This voltage stimulation was applied every 15 seconds, and data were recorded for 2 minutes, and thereafter the extracellular fluid was administered and data were recorded for 5 minutes, and then the administration process was started. The compound was administered for 2.5 minutes at each test concentration from the lowest test concentration. After all the concentrations of the compound were administered, […] of Cisapride was administered as a positive comparative compound. At least three cells (n>3) were tested for each concentration.
a. A 20 mM compound mother solution was diluted with the extracellular fluid, wherein 5 μL of the 20 mM compound mother solution was taken and diluted 500 times to 40 μM by adding 2495 μL of the extracellular fluid thereto, and then 3-fold serial dilutions were performed sequentially in the extracellular fluid containing 0.2% DMSO to obtain a final concentration to be tested.
b. The highest test concentration was 40 μM, and there were six concentrations in total, i.e., 40, 13.33, 4.44, 1.48, 0.49, and 0.16 μM, respectively.
c. The DMSO content in the final test concentration was not more than 0.2%. This concentration of DMSO had no effect on the hERG potassium channel.
The experimental data were analyzed by XLFit software.

CYP2C19, sequence (P33261 whole entry, canonical isoform): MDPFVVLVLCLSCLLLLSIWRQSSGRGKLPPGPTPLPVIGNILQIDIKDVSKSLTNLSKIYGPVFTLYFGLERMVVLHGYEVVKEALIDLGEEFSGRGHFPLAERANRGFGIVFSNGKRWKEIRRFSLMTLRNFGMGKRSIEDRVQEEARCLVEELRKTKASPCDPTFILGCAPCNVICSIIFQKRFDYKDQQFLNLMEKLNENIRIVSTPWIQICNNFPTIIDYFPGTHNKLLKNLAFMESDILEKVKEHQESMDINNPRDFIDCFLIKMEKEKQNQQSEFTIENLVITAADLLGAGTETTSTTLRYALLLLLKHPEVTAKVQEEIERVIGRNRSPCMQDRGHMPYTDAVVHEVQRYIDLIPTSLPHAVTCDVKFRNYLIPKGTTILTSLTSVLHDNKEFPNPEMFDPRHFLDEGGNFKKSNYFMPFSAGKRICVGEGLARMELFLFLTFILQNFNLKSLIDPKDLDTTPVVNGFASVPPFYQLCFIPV
CYP3A4, sequence (P08684 whole entry): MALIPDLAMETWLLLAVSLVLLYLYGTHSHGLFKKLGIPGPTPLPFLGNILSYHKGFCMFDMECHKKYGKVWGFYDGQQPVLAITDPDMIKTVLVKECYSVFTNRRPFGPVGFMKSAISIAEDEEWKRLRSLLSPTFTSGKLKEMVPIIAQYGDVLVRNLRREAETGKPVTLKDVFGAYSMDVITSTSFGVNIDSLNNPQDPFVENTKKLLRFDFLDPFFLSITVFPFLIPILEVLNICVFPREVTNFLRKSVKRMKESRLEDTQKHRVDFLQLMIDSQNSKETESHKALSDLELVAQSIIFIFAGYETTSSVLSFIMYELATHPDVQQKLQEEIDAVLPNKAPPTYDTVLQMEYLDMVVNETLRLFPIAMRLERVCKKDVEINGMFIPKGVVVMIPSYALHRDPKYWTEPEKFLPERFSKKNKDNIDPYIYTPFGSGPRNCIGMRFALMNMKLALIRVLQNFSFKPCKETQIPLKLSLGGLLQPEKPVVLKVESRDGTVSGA
CYP2D6, sequence (P10635 whole entry): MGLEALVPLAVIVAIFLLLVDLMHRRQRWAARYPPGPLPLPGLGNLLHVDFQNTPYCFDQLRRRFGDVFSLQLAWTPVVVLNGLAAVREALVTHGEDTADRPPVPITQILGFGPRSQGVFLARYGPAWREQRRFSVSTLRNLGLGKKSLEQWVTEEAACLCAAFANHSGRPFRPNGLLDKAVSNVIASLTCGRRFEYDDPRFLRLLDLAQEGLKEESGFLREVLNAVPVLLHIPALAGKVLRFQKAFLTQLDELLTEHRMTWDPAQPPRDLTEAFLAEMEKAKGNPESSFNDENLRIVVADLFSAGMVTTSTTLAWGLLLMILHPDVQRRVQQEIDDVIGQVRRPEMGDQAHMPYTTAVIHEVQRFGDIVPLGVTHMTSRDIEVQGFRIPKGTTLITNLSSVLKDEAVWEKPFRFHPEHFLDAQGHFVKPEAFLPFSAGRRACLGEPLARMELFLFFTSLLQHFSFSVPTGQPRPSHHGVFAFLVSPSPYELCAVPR
CYP2C9, sequence (P11712 whole entry): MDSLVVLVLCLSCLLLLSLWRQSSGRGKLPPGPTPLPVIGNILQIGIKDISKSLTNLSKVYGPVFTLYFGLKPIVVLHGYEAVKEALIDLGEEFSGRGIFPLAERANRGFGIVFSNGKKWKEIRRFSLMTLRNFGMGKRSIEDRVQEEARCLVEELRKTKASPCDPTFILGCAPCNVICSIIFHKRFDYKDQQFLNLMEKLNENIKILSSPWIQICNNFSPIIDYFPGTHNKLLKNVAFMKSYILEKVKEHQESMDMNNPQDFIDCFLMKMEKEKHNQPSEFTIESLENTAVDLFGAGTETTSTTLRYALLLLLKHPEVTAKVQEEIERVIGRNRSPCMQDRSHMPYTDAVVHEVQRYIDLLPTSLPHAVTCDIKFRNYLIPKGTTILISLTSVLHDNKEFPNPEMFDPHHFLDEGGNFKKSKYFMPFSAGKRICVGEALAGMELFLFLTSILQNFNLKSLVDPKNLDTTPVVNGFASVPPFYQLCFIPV
hERG potassium channels, sequence (Q12809 whole entry): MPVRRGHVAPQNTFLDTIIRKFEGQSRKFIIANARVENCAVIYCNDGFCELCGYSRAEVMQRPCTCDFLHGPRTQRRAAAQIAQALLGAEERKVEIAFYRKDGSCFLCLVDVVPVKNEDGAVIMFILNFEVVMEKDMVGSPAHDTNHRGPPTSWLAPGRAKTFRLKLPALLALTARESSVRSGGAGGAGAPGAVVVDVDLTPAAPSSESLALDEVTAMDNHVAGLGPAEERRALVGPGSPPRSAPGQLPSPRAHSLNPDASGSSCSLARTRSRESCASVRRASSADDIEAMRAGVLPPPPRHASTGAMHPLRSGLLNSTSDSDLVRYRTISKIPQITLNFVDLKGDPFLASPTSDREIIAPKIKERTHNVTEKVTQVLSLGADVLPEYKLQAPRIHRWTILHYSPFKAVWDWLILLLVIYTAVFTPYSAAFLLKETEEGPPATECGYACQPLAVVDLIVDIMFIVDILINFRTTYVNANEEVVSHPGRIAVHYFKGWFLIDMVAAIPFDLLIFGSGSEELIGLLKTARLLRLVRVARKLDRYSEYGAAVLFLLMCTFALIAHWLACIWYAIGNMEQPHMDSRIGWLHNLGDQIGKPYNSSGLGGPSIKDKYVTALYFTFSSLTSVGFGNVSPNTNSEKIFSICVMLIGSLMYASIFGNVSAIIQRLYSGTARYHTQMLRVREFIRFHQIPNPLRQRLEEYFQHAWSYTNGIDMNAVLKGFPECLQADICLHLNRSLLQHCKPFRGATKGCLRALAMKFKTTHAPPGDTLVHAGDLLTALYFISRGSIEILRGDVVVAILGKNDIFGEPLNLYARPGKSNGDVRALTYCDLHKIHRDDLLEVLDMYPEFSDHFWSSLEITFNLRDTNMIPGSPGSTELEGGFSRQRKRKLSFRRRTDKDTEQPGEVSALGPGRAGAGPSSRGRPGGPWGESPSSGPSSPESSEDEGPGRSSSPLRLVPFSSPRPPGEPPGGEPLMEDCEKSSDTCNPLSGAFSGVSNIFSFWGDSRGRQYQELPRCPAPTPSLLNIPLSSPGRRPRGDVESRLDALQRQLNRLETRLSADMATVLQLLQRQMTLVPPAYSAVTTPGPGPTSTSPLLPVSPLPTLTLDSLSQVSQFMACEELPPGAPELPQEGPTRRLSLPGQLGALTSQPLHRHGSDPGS

Molecule Clc1cccc(CNCC[C@@]2(c3ccccn3)CCO[C@]3(CCOC3)C2)c1 [(+)-8] has an IC50 (CYP2C19) of over 50 µM, an EC50 [1] of 1.8 nM and an Emax [1] of 85.3%. For the same molecule, the IC50 (CYP2D6) was 17.3 µM, the CLint scaled [2] was 10 mL/min/kg and the IC50 (CYP2C9) was over 50 µM. The IC50 (CYP3A4) was over 50 µM, the EC50 [3] was over 30 µM and the Emax [3] was about 0%.

Work on Cc1cccc(CNCC[C@@]2(c3ccccn3)CCO[C@]3(CCOC3)C2)c1 [(+)-9] yielded an IC50 (CYP2C19) of over 50 µM, an EC50 [1] of 6.1 nM and an Emax [1] of 88.9%. For the same molecule, the IC50 (CYP2D6) was 23.4 µM, the CLint scaled [2] was 8.8 mL/min/kg and the IC50 (CYP2C9) was over 50 µM. The IC50 (CYP3A4) was 21.9 µM, the EC50 [3] was over 30 µM and the Emax [3] was about 0%.

For Fc1cc(Cl)cc(CNCC[C@@]2(c3ccccn3)CCO[C@]3(CCOC3)C2)c1 [(+)-18], the IC50 (CYP2C19) was over 50 µM, the EC50 [1] was 4.2 nM and the Emax [1] was 87.7%. The IC50 (CYP2D6) was 24.5 µM, the CLint scaled [2] was 84.9 mL/min/kg and the IC50 (CYP2C9) was over 50 µM. For the same molecule, the IC50 (CYP3A4) was over 50 µM, the EC50 [3] was over 30 µM and the Emax [3] was about 0%.

Fc1ccc([C@]2(CCNCc3cccc(Cl)c3)CCO[C@]3(CCOC3)C2)nc1 [Hydrochloride Salt of (+)-16] showed an IC50 (hERG potassium channels) of 22.8 µM.
